According to patent US11578097B2, “Tetrazole derivatives of bile acids as FXR/TGR5 agonists and methods of use thereof” (Enanta Pharmaceuticals, Inc., priority 2014, dated 2023):

Target: T1, human FXR (NR1H4) (Homo sapiens, UniProt Q96RI1)
T1 construct: host or cells: CHO (Chinese hamster ovary) cells
T1 sequence (Q96RI1 1-486): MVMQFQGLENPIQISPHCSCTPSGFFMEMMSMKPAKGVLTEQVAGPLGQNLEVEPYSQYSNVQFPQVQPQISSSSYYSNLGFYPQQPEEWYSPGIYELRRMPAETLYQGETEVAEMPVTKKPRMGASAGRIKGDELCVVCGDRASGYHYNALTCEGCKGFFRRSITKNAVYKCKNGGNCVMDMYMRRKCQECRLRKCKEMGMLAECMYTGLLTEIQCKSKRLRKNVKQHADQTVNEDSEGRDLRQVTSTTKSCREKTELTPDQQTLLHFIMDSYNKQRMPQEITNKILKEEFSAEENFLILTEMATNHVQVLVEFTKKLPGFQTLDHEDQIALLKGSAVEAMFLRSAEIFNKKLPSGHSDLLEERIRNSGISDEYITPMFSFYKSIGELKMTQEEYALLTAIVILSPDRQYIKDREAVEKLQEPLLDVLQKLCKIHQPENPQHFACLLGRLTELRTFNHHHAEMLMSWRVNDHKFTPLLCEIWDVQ
Assay: Human FXR (NR1H4) reporter assay (Gal4 promoter driven transactivation, luciferase)
Type: cell-based
Settings: for Efficacy (%): normalized to CDCA set as 100%
Source text: Assays Human FXR (NR1H4) Assay Determination of a ligand mediated Gal4 promoter driven transactivation to quantify ligand binding mediated activation of FXR. FXR Reporter Assay kit purchased from Indigo Bioscience (Catalogue number: IB00601) to determine the potency and efficacy of compound developed by Enanta that can induce FXR activation. The principal application of this reporter assay system is to quantify functional activity of human FXR. The assay utilizes non-human mammalian cells, CHO (Chinese hamster ovary) cells engineered to express human NR1H4 protein (referred to as FXR). Reporter cells also incorporate the cDNA encoding beetle luciferase which catalyzes the substrates and yields photon emission. Luminescence intensity of the reaction is quantified using a plate-reading luminometer, Envision. Reporter Cells include the luciferase reporter gene functionally linked to an FXR responsive promoter. Thus, quantifying changes in luciferase expression in the treated reporter cells provides a sensitive surrogate measure of the changes in FXR activity. […] The assay is according to the manufacturer's instructions. In brief, the assay was performed in white, 96 well plates using final volume of 100 ul containing cells with different doses of compounds. Retrieve Reporter Cells from −80° C. storage. Perform a rapid thaw of the frozen cells by transferring a 10 ml volume of 37° C. cell recovery medium into the tube of frozen cells. Recap the tube of Reporter Cells and immediately place it in a 37° C. water bath for 5-10 minutes. Retrieve the tube of Reporter Cell Suspension from the water bath. Sanitize the outside surface of the tube with a 70% alcohol swab, and then transfer it into the cell culture hood. Dispense 90 μl of cell suspension into each well of the 96-well Assay Plate. Transfer the plate into 37° C. incubator, allowing the cells adherent to the bottom of the well. Dilute compounds in Dilution Plate (DP), and administrate to cells at Assay Plate (AP). DMSO content of the samples was kept at 0.2%. Cells were incubated for additional 22 hours before luciferase activities were measured. Thirty minutes before intending to quantify FXR activity, remove Detection Substrate and Detection Buffer from the refrigerator and place them in a low-light area so that they may equilibrate to room temperature. Remove the plate's lid and discard all media contents by ejecting it into an appropriate waste container. Gently tap the inverted plate onto a clean absorbent paper towel to remove residual droplets. Cells will remain tightly adhered to well bottoms. Add 100 μl of luciferase detection reagent to each well of the assay plate. Allow the assay plate to rest at room temperature for at least 5 minutes following the addition of LDR. Set the instrument (Envision) to perform a single 5 second “plate shake” prior to reading the first assay well. Read time may be 0.5 second (500 mSec) per well.

| SMILES | EC50 [µM] | Efficacy (%) |
| --- | --- | --- |
| CC[C@H]1[C@@H](O)[C@@H]2[C@H](CC[C@]3(C)[C@@H]([C@H](C)CCCCc4nn[nH]n4)CC[C@@H]23)[C@@]2(C)CC[C@@H](O)C[C@@H]12 [Example 4] | 0.1 to 1 | 234 |
| CC[C@H]1[C@@H](O)[C@@H]2[C@H](CC[C@]3(C)[C@@H]([C@H](C)CCCc4nnn[nH]4)CC[C@@H]23)[C@@]2(C)CC[C@@H](O)C[C@@H]12 [Example 2] | 0.1 to 1 | 354 |
| CC[C@H]1[C@@H](O)[C@@H]2[C@H](CC[C@]3(C)[C@@H]([C@H](C)Cc4nnn[nH]4)CC[C@@H]23)[C@@]2(C)CC[C@@H](O)C[C@@H]12 [Example 3] | 1 to 10 | 192 |
| CC[C@H]1[C@@H](O)[C@@H]2[C@H](CC[C@]3(C)[C@@H]([C@H](C)CCc4nnn[nH]4)CC[C@@H]23)[C@@]2(C)CC[C@@H](O)C[C@@H]12 [Example 1] | 1 to 10 | 397 |
| CC[C@H]1[C@@H](O)[C@@H]2[C@H](CC[C@]3(C)[C@@H]([C@H](C)CCC(=O)Nc4nnn[nH]4)CC[C@@H]23)[C@@]2(C)CC[C@@H](O)C[C@@H]12 [Example 6] | 1 to 10 | 105 |
| CC[C@H]1[C@@H](O)[C@@H]2[C@H](CC[C@]3(C)[C@@H]([C@H](C)CCCCCc4nn[nH]n4)CC[C@@H]23)[C@@]2(C)CC[C@@H](O)C[C@@H]12 [Example 5] | 0.1 to 1 | 191 |
